Measurements as given in patent US9355826B2, “Method for imaging mass analysis using physical vapor deposition of platinum nanoparticles” (priority 2012, dated 2016).

Assay: IMS visualization of permeation and distribution of acephate in ivy after scattering a grain type agricultural chemical on the soil
Type: in vivo
Conditions: for mass spectrum of collected leaves (peaks originating from acephate): FIG. 32; for distribution of acephate on leaf (peak at m/z=206): FIG. 33; for distribution of acephate in stem (peak at m/z=206): ivy stems collected 4 days later, FIG. 34
Procedure: A grain type pesticide agricultural chemical for horticulture was scattered on soil in which ivy was planted. 4, 8, 11, and 14 days later, leaves at about 30 mm from the soil were collected, and platinum nanoparticles were vapor deposited using a magnetron sputtering device to a thickness of 10 nm, thereby preparing samples. The grain type agricultural chemical that was used contained acephate as an active component.
Each sample was measured by IMS. Also, for the stems that were collected 4 days later, the lower stem and the upper stem, which were respectively close to and far from the root, were measured by IMS under the same conditions.
The measurement conditions of IMS are shown below.
Irradiation laser: Nd:YAG laser (355 nm)
Accelerating voltage: 19 kV
Reflectron voltage: 21 kV
Laser radius: about 100 μm (ultra mode)
Measurement interval: 150 μm

With COP(=O)(NC(C)=O)SC (centres unmarked) [acephate] the “mass spectrum of collected leaves (peaks originating from acephate)” value (ivy leaves at about 30 mm from the soil, collected 4 days after scattering on soil) was “only the peaks of the wax layer were observed”, the “distribution of acephate on leaf (peak at m/z=206)” value (from here on “distribution of acephate on leaf”) (ivy leaves collected 4 days later) was “not observed” and the “distribution of acephate on leaf” value (ivy leaves collected 8 days later) was “observed at the base of the leaves”. For the same compound, the “mass spectrum of collected leaves (peaks originating from acephate)” value (ivy leaves collected 11 days after scattering on soil) was “peaks originating from acephate were observed”, the “distribution of acephate on leaf” value (ivy leaves collected 11 days later) was “observed spreading to the tips of the leaves” and the “distribution of acephate on leaf” value (ivy leaves collected 14 days later) was “observed spreading to the tips of the leaves”. For the same compound, the “distribution of acephate in stem (peak at m/z=206)” value (lower stem close to the soil) was “strong peak of acephate was observed in the lower side of the lower stem” and the “distribution of acephate in stem (peak at m/z=206)” value (moving upward along the stem) was “gradual weakening of the acephate peak”.
